For assay [1], the system named is hrtAB-driven expression of the xylE reporter gene. Briefly: XylE reporter assay (hrtAB promoter-xylE), Newman. The assay is classed as cell-based, Staphylococcus aureus. Conditions: for XylE (0.05): level of XylE induction at 0.05 uM of the compound; for XylE (0.5): level of XylE induction at 0.5 uM of the compound; for XylE (5.0): level of XylE induction at 5.0 uM of the compound; for XylE (50.0): level of XylE induction at 50.0 uM of the compound. Put shortly:
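S. aureus carrying hrtAB promoter-xylE fusion in pOS1 grown O/N at 37° C in TSB with chloramphenicol, lysed with lysostaphin. Lysate XylE activity read as 2-hydroxymuconic semialdehyde formation from 0.2 mM pyrocatechol (A375, every minute for 30 minutes), normalised to BCA protein; unit = 1 nmol/min/mg at 30° C.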

In assay [2] the test system is HssRS-dependent hrtAB expression. In words: Luminescence-based assay to monitor HssRS-dependent hrtAB expression (phrtABlux reporter), Newman. The assay is classed as cell-based, Staphylococcus aureus. Particulars: Newman; for activation at 0.0825 µM: Staphylococcus aureus, NEWMAN, read-out: % Lumi, luminescence induced by the compound compared to the heme control (82.5 nM) in the same plate; for Luminescence: raw luminescence value obtained in a luminometer. The essentials:
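S. aureus Newman wild type or ΔhssR carrying a hrtAB promoter–luxCDABE reporter (phrtABlux), grown in TSB with 10 μg/ml chloramphenicol at 37 °C. Light output read against 82.5 nM heme as the in-plate positive control. Activity given as % of heme-induced luminescence.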

Regarding `COc1ccc(-c2cc(-c3ccc(C)cc3)[nH]n2)c(O)c1`, in assay [1], the “XylE (0.05)” value is 0.08, the “XylE (0.5)” value stood at 0.02, the “XylE (5.0)” value worked out at 0.07 and the “XylE (50.0)” value came to 0.09. In assay [2], the activation at 0.0825 µM amounted to 180% and the Luminescence is reported as 1122.

`COc1ccc(-c2cc(-c3ccc(OC)cc3O)n[nH]2)cc1`: in assay [1], the “XylE (0.05)” value is on record as 0.06, the “XylE (0.5)” value is 0.02, the “XylE (5.0)” value worked out at 0.7 and the “XylE (50.0)” value is given as 4. In addition, in assay [2], the activation at 0.0825 µM is 238% and the Luminescence turned out to be 1482.

In the case of `COc1ccc(C(=O)Nc2sc(-c3ccccc3)cc2C(N)=O)cc1`, in assay [1], the “XylE (0.05)” value was 0.07, the “XylE (0.5)” value was determined as 0.09, the “XylE (5.0)” value came out at 4 and the “XylE (50.0)” value amounted to 6. Besides, in assay [2], the activation at 0.0825 µM is 244% and the Luminescence stood at 1781.

Consider `Fc1ccc(CNC(=S)Nc2ccc(Oc3ccccc3)cc2)cc1`, for which, in assay [1], the “XylE (0.05)” value is on record as 0.06, the “XylE (0.5)” value is 0.05, the “XylE (5.0)” value is on record as 0.2 and the “XylE (50.0)” value is listed as 1. Also, in assay [2], the activation at 0.0825 µM is 362% and the Luminescence was found to be 1570.

With `CC(C)(C)c1ccc(O)c(NC(=S)NC(=O)c2cc3ccccc3o2)c1`, in assay [1], the “XylE (0.05)” value was 0.09, the “XylE (0.5)” value amounted to 0.8, the “XylE (5.0)” value turned out to be 0.9 and the “XylE (50.0)” value was 1. For the same molecule, in assay [2], the activation at 0.0825 µM turned out to be 101% and the Luminescence was determined as 419.

As to `Oc1c(-c2cc(-c3ccco3)[nH]n2)ccc2ccccc12` [drawing 25], in assay [1], the “XylE (0.05)” value came out at 0.07, the “XylE (0.5)” value is 0.06, the “XylE (5.0)” value was found to be 0.2 and the “XylE (50.0)” value is reported as 1000. Also, in assay [2], the Luminescence was determined as 2622.

Turning to `CC(NC(=O)C1(c2ccccc2)CCCC1)C1COc2ccccc2O1` (stereo not drawn) [drawing 26], in assay [1], the “XylE (0.05)” value turned out to be 0.06, the “XylE (0.5)” value is 0.05, the “XylE (5.0)” value amounted to 0.7 and the “XylE (50.0)” value is 200. In assay [2], the activation at 0.0825 µM came to 266% and the Luminescence is reported as 757.

With `Cc1ccc(O)c(NC(=O)c2nn3c(c2Br)NC(c2ccco2)CC3C(F)(F)F)c1` (stereo not drawn) [drawing 29], in assay [1], the “XylE (0.05)” value came to 0.05, the “XylE (0.5)” value is listed as 0.06, the “XylE (5.0)” value stood at 5 and the “XylE (50.0)” value was determined as 3. Moreover, in assay [2], the activation at 0.0825 µM came out at 307% and the Luminescence is 1949.

Consider `Cc1cccc(C(=O)Nc2ccc(-c3nc4ccccc4o3)cc2)c1` [drawing 43], for which, in assay [1], the “XylE (0.05)” value is on record as 0.09, the “XylE (0.5)” value came out at 0.7, the “XylE (5.0)” value stood at 1 and the “XylE (50.0)” value was found to be 0.09. Besides, the Luminescence in assay [2] worked out at 837.

Turning to `CC(NC(=O)C1(c2ccccc2)CCCC1)C1COc2ccccc2O1` (stereo not drawn) [drawing 45], in assay [1], the “XylE (0.05)” value stood at 0.04, the “XylE (0.5)” value is recorded as 0.1, the “XylE (5.0)” value is 0.7 and the “XylE (50.0)” value turned out to be 0.05. In assay [2], this molecule gave a Luminescence of 757.

Turning to `O=C(N/N=C/c1ccc(-c2ccc(Br)cc2)o1)C1COc2ccccc2O1` (stereo not drawn) [drawing 48], in assay [1], the “XylE (0.05)” value came out at 0.02, the “XylE (0.5)” value came out at 0.08, the “XylE (5.0)” value is listed as 0.7 and the “XylE (50.0)” value is recorded as 0.2. Further, in assay [2], the activation at 0.0825 µM was determined as 133% and the Luminescence was determined as 485.

Turning to `O=C(N/N=C/c1ccc(-c2cccc(C(F)(F)F)c2)o1)C1COc2ccccc2O1` (stereo not drawn) [drawing 49], in assay [1], the “XylE (0.05)” value came out at 0.07, the “XylE (0.5)” value worked out at 0, the “XylE (5.0)” value is reported as 0.6 and the “XylE (50.0)” value came out at 0.09. Further, in assay [2], the activation at 0.0825 µM came to 152% and the Luminescence is reported as 558.

Take `COc1ccc(Br)cc1C(=O)NC(=S)Nc1cc(C)c(C)cc1O` [drawing 63]: in assay [1], the “XylE (0.05)” value turned out to be 0.08, the “XylE (0.5)” value is listed as 0.8, the “XylE (5.0)” value is recorded as 0.9 and the “XylE (50.0)” value is 2. For the same molecule, in assay [2], the Luminescence was determined as 946.

On to `Oc1c(-c2cc(-c3ccco3)[nH]n2)ccc2ccccc12` [drawing 65], for which, in assay [1], the “XylE (0.05)” value was determined as 0.4, the “XylE (0.5)” value stood at 0.07, the “XylE (5.0)” value was 12 and the “XylE (50.0)” value was found to be 5. Besides, in assay [2], the activation at 0.0825 µM came to 630% and the Luminescence is on record as 2622.

For the molecule `CCCN1C(=O)/C(=C2/C(=O)N(CC(=O)Nc3ccc(Cl)cc3)c3ccccc32)SC1=S` [drawing 67], in assay [1], the “XylE (0.05)” value is 0.02, the “XylE (0.5)” value is listed as 0.04, the “XylE (5.0)” value amounted to 0.05 and the “XylE (50.0)” value was 1. Also, the Luminescence in assay [2] stood at 98.

With `Cc1ccc(NS(=O)(=O)c2ccc3c(c2)Cc2cc(S(=O)(=O)Nc4ccc(C)cc4)ccc2-3)cc1` [drawing 74], in assay [1], the “XylE (0.05)” value is given as 1, the “XylE (0.5)” value is listed as 1, the “XylE (5.0)” value was 15 and the “XylE (50.0)” value was determined as 14. The same molecule returned a Luminescence in assay [2] of 7328.

With `COc1ccccc1NC1=C/C(=N\S(=O)(=O)c2ccc(Br)cc2)c2ccccc2C1=O` [drawing 81], in assay [1], the “XylE (0.05)” value worked out at 1, the “XylE (0.5)” value amounted to 1, the “XylE (5.0)” value amounted to 1 and the “XylE (50.0)” value is on record as 1. In assay [2], the activation at 0.0825 µM came to 510% and the Luminescence stood at 2270.
